Columns and labels:
SK-OV-3 models [1] = experiment: MicroPET/CT imaging of SK-OV-3 models; format: in vivo, BALB/c nude mice
Procedure: (§1) Female BALB/c nude mice (6–8 weeks old) were utilized in all tumor-bearing mouse experiments. Twelve BALB/c nude mice were subcutaneously injected with SK-OV-3 cells (1 × 10^6) into the right armpit. The mice were used for investigation after the tumor diameter reached approximately 0.5–1.1 cm.
Six SK-OV-3 models were separated into two groups (^68Ga-labelled radiotracers and blocked groups). The ^68Ga-labelled radiotracers (2.96–5.55 MBq in 200 μL of saline) were administered via tail vein injection. Approximately 5 min before PET acquisition, the mice were anaesthetized by inhalation of a mixture of isoflurane and positioned in the scanner. The PET data for each mouse were acquired at 0.5, 1, and 2 h after injection. In the blocking studies, ^68 Ga-DOTA-Olaparib was injected with a 500-fold excess of Olaparib (562.68 μg) in 200 μL of a solution consisting of 75% saline and 25% DMSO (dimethyl sulfoxide). PET acquisition was performed at 1 h postinjection. The target tissue’s radioactivity content was measured, and the tissue-associated activity was expressed as %ID/g.

[2] = Partition coefficient log P (octanol/ultrapure water); format: physicochemical; settings: ultrapure water/octanol = 1/1
Procedure: Log P: Generally, approximately 74–185 kBq of the ^68Ga-labelled radiotracer was combined with a solvent mixture (2 mL, ultrapure water/octanol = 1/1). After 5 min of agitation in a vortex mixer, the aqueous and nonaqueous phases were separated by centrifugation at 15000 g. The radioactivity of each sampling layer (100 μL) was measured using a γ-counter. The trial was conducted five times.

[3] = Pharmacokinetics (blood clearance) in normal mice; format: in vivo; settings: tail vein injection, blood radioactivity
Procedure: The pharmacokinetic parameters of the three ^68Ga-labelled radiotracers were evaluated in normal mice. The three ^68Ga-labelled radiotracers were injected into mice via the tail veins at a dose of 1.48–2.96 MBq/mouse in approximately 200 μL. Blood samples were obtained via the tail vein using tared capillary tubes at 1, 3, 5, 10, 15, 30, 60, 120, and 180 min after radiotracer injection. The blood volume drawn was approximately 0.5–0.8 dispense capillary volumes at each time point. Dispense capillary tube was from Shanghai Great Wall Scientific Instruments Store (size: 0.5 × 100; diameter: 0.5 mm; length: 100 mm). The radioactivity was determined with a γ-counter and decay-corrected to the injection time. All samples were weighed. The radioactive CPM (counts per minute) by dividing by the mass of blood in the capillary are presented as %ID/g. Finally, the pharmacokinetic parameters were analysed by GraphPad Prism 9.0.

[4] = Partition coefficient log D7.4 (octanol/PBS); format: physicochemical; settings: PBS (pH = 7.4)/octanol = 1/1
Procedure: Log D7.4: Similarly, approximately 74–185 kBq of the ^68Ga-labelled radiotracer was combined with a solvent mixture (2 mL, PBS (pH = 7.4)/octanol = 1/1). The partition coefficient experiment was repeated, as mentioned previously.

SK-OV-3 and A549 cells = experiment: Cell uptake of radiotracers in SK-OV-3 and A549 cells; format: cell-based; settings: 2 h incubation at 37 °C
Procedure: SK-OV-3 and A549 cells were seeded in 6-well plates (500 × 10^3/well) for 24 h. Then, the cells were incubated separately with the three ^68Ga-labelled radiotracers (740 kBq/1 mL in each well) at 37 °C. To eliminate unbound ^68Ga-labelled radiotracers, the cells were rinsed three times with PBS (0.5 mL) 2 h after incubation. Cell suspensions were produced after adding pancreatin (0.5–0.8 mL). Finally, a γ-counter was used to measure the radioactivity. The radioactivity data are presented as CPM (counts per minute) with time-decay correction. Three replicate experiments were conducted.

[5] = Plasma protein binding (ultrafiltration); format: in vitro ADME; settings: mouse plasma
Procedure: To evaluate the plasma protein binding of the ^68Ga-labelled radiotracers, mouse blood from the heart was centrifuged at 4000 g for 5 min. The upper layer of blood was transferred to an EP tube and stored overnight in a refrigerator at 4 °C.
One hundred microliters of the ^68Ga-labelled radiotracer solution (0.74–1.48 MBq) was incubated with 100 μL of the above plasma. After 0.5, 1, and 2 h of incubation, the mixture was centrifuged at 15000 g for 10 min in a 30 K ultrafiltration tube. The radioactivity of the membrane and eluate was detected with a γ-counter. The radioactivity from the membrane, representing the tracer bound to plasma proteins, was estimated as a proportion of the total radioactivity of the sample. The experiment was repeated in triplicate.

SK-OV-3 models [6] = experiment: Ex vivo biodistribution in SK-OV-3 models; parameters: species or system BALB/c nude mice
Procedure: as §1
(§2) Biodistribution experiments were conducted with SK-OV-3 models (10–12 weeks old, n = 3). ^68Ga-DOTA-Olaparib (1.85–5.55 MBq of ^68Ga-DOTA-Olaparib in 200 μL of saline) was administered via the lateral tail vein. After allowing the medication to circulate for varying amounts of time (0.5, 1, and 2 h), three mice were sacrificed. The tissue radioactivity (tumor, blood, muscle, bone, liver, spleen, kidney, heart, lung, bladder, brain, small intestine, and stomach) was measured using a γ-counter. The organs were weighed, and the γ-counter activity readings were decay-corrected to the injection time. Finally, the associated tissue activity was calculated by GraphPad Prism 9.0, and the data are expressed as %ID/g.
To verify specific tumor accumulation, ^68Ga-DOTA-Olaparib was administered with a 500-fold excess of Olaparib (530.94 μg) in 200 μL of a solution containing 75% saline and 25% DMSO via the lateral tail vein. After 1 h, mice (n = 3) were sacrificed to collect the tissues of interest. The associated tissue activity was measured as described above.

[7] = Ex vivo biodistribution in normal mice; settings: 5-180 min after injection
Procedure: Normal mice (6–8 weeks old, n = 5) were utilized in the biodistribution experiments. ^68Ga-DOTA-Olaparib (0.74–2.96 MBq of 200 μL of saline) was administered via the lateral tail vein. The medication was allowed to circulate for 5, 15, 30, 60, 120, and 180 min before the mice were sacrificed. The radioactivity in the target tissues (blood, muscle, bone, liver, spleen, kidney, heart, lung, bladder, brain, small intestine, and stomach) was measured using a γ-counter. The organs were weighed, and the γ-counter activity readings were decay-corrected to the injection time. The corresponding tissue activity was then assessed using GraphPad Prism 9.0, and the data are presented as %ID/g using the following formula: [(activity in the target organ/target organ quality)/injected dose] * 100%.

A549 models = experiment: Ex vivo biodistribution in A549 models; parameters: species or system mice; settings: 1 h
Procedure: as §2, with “To further compare and validate the specific uptake of ^68Ga-DOTA-Olaparib in different tumor models, biodistribution” for “Biodistribution”, “A549” for “SK-OV-3”, “(1.22–5.59” for “(1.85–5.55”

PARP-1 in SK-OV-3 cells = experiment: In vitro cell localization, FL-Olaparib confocal fluorescence with competition; settings: FL-Olaparib 250 nM, presaturation with 1000-fold molar excess of competitor
[8] = target: T1, PARP-1 protein (human, Recombinant (His Tag)) (Homo sapiens, UniProt P09874); experiment: Surface plasmon resonance (SPR) binding assay; settings: SPR imaging
T1 construct: His tag; purchased Sino Biological 11,040-H08B
Procedure: Furthermore, the compound Olaparib was used as a reference for affinity. The surface plasmon resonance binding assays were conducted according to the previous protocol.

| tumor uptake (PET/CT) (SK-OV-3 models [1]; 0.5 h after injection) | tumor uptake (PET/CT) (SK-OV-3 models [1]; 1 h after injection) | tumor uptake (PET/CT) (SK-OV-3 models [1]; 2 h after injection) | log Poctanol/water [2] | clear-phase half-life (t1/2β) [3] | distribution-phase half-life (t1/2α) [3] | log Doctanol/PBS [4] | plasma protein binding ([5]; 0.5 h) | plasma protein binding ([5]; 1 h) | plasma protein binding ([5]; 2 h) | SMILES | SK-OV-3/A549 uptake ratio (SK-OV-3 and A549 cells) | also measured |
| --- | --- | --- | --- | --- | --- | --- | --- | --- | --- | --- | --- | --- |
| 0.96 ± 0.13 %ID/g | 0.57 ± 0.068 %ID/g | 0.91 ± 0.11 %ID/g | -1.62 ± 0.075 | 23.19 min | 0.40 min | -1.75 ± 0.11 | 39.32 ± 1.89% | 43.08 ± 7.20% | 43.56 ± 5.24% | O=C([O-])CN1CCN(CC(=O)O)CCN(CC(=O)[O-])CCN(CC(=O)NCC(=O)NCC(=O)NCC(=O)N2CCN(C(=O)c3cc(Cc4n[nH]c(=O)c5ccccc45)ccc3F)CC2)CC1.[68Ga+3] [68Ga-DOTA-(Gly)3-Olaparib] | 1.63 ± 0.13 |  |
| 0.96 ± 0.14 %ID/g | 0.56 ± 0.12 %ID/g | 0.98 ± 0.53 %ID/g | -2.16 ± 0.12 | 47.69 min | 0.31 min | -2.49 ± 0.15 | 59.62 ± 2.40% | 83.84 ± 1.42% | 58.13 ± 6.63% | O=C([O-])CN1CCN(CC(=O)O)CCN(CC(=O)[O-])CCN(CC(=O)NCCCC(=O)N2CCN(C(=O)c3cc(Cc4n[nH]c(=O)c5ccccc45)ccc3F)CC2)CC1.[68Ga+3] [68Ga-DOTA-GABA-Olaparib] | 2.43 ± 0.45 |  |
|  | ~2.37 ± 0.37 %ID/g | ~2.27 ± 0.32 %ID/g | -2.33 ± 0.028 | 22.82 min | 1.97 min | -2.56 ± 0.026 | 20.59 ± 1.23% | 32.85 ± 4.11% | 24.04 ± 0.80% | O=C([O-])CN1CCN(CC(=O)O)CCN(CC(=O)[O-])CCN(CC(=O)N2CCN(C(=O)c3cc(Cc4n[nH]c(=O)c5ccccc45)ccc3F)CC2)CC1.[68Ga+3] [68Ga-DOTA-Olaparib] | 1.47 ± 0.019 | tumor/intestine ratio (SK-OV-3 models [6]; 1 h after administration): 2.05 ± 0.072; tumor/stomach ratio (SK-OV-3 models [6]; 1 h after administration): 2.97 ± 0.73; T/M ratio (ex vivo biodistribution) (SK-OV-3 models [6]; 2 h): 12.64 ± 1.32; tumor-to-bone ratio (ex vivo biodistribution) (SK-OV-3 models [6]; 2 h): 3.85 ± 0.68; tumor-to-brain ratio (ex vivo biodistribution) (SK-OV-3 models [6]; 2 h): 15.63 ± 1.58; bladder accumulation (SK-OV-3 models [6]; SK-OV-3 models, 0.5 h): 5.80 ± 1.47 %ID/g; kidneys accumulation (SK-OV-3 models [6]; SK-OV-3 models, 0.5 h): 3.11 ± 0.29 %ID/g; bladder accumulation (SK-OV-3 models [6]; SK-OV-3 models, 1 h): 2.57 ± 0.72 %ID/g; kidneys accumulation (SK-OV-3 models [6]; SK-OV-3 models, 1 h): 4.24 ± 0.22 %ID/g; tumor radioactivity (ex vivo biodistribution), blocked (SK-OV-3 models [6]; SK-OV-3 models, 1 h, 500-fold excess of Olaparib): 0.25 ± 0.027 %ID/g; tumor radioactivity (ex vivo biodistribution) (SK-OV-3 models [6]; SK-OV-3 models, 1 h postinjection): 1.26 ± 0.17 %ID/g; bladder accumulation (SK-OV-3 models [6]; SK-OV-3 models, 2 h): 0.064 ± 0.025 %ID/g; kidneys accumulation (SK-OV-3 models [6]; SK-OV-3 models, 2 h): 2.51 ± 0.33 %ID/g; order of clearance from the body [7]: kidney-bladder-urine; T/M (tumor-to-muscle) ratio (PET/CT) (SK-OV-3 models [1]; 0.5 h): approximately 3.54 ± 0.74; T/M (tumor-to-muscle) ratio (PET/CT), blocked (SK-OV-3 models [1]; 1 h, blocked with a 500-fold excess of Olaparib): 1.79 ± 0.26; T/M (tumor-to-muscle) ratio (PET/CT) (SK-OV-3 models [1]; 1 h, unblocked): ~4.07 ± 0.59; T/M (tumor-to-muscle) ratio (PET/CT) (SK-OV-3 models [1]; 2 h): ~7.31 ± 0.51; tumor uptake (ex vivo biodistribution) (A549 models): 0.43 ± 0.10 %ID/g |
|  |  |  |  |  |  |  |  |  |  | O=C(O)CN1CCN(CC(=O)O)CCN(CC(=O)N2CCN(C(=O)c3cc(Cc4n[nH]c(=O)c5ccccc45)ccc3F)CC2)CCN(CC(=O)O)CC1 [DOTA-Olaparib] |  | effect on FL-Olaparib fluorescence signals (PARP-1 in SK-OV-3 cells): substantial reduction in fluorescence signals; Kd [8]: 0.0145 µM |
